Entries after “also recorded” stand apart in the source; their conditions may differ.
Legend:
SOD1 [1] = target: SOD1 (Homo sapiens, UniProt P00441); test: Western blot / native gel analysis of SOD1 aggregation; type: cell-based
Procedure: (§1) Using RIPA buffer (50 mM Tris-Cl, pH 7.5, 150 mM NaCl, 1% NP-40, 0.1% SDS and […]) for SDS-PAGE and lysis buffer (50 mM Tris-Cl, pH 7.5, 150 mM NaCl, 0.3% NP-40) for Native-PAGE, proteins were extracted from cells. Samples were separated by the SDS-PAGE or the Native-PAGE and transferred to PVDF membrane. Blotted membrane was blocked with TBST buffer including 3% skim milk for 1 hour, and reacted with specific antibodies. The reacted antibodies were detected by ECL and X-ray film exposure. Antibodies used in the present disclosure are as follows: pan-SOD1 (GTX100554) was purchased from Genetex (California, USA). Misfolded SOD1-specific antibody (B8H10) was purchased from MediMabs (Montreal, Canada). Actin (sc-1616), GST (sc-138), and GFP (Green fluorescent protein; sc-8036) were purchased from Santa Cruz biotechnology (Santa Cruz, CA, USA). TDP-43 antibody (10782-2-AP) was purchased from Proteintech (Rosemont, IL, USA). Anti-FLAG (Sigma; F3165) was purchased from Sigma Aldrich (St, Louis, Mo, USA), and HRP-conjugated goat anti-mouse, goat anti-rabbit, and mouse anti-goat antibodies (Pierce, Thermo Fisher Scientific, Inc., Rockford, IL, USA) were used as secondary antibodies.
(§2) GFP-SOD1 (WT, G85R, G93A), non-tagged SOD1 (WT, A4V, G37R, G85R, G93A) and tdTomato-TDP43 expression vectors were purchased from Addgene (Cambridge, MA, USA). Transfection was performed using Jet-PEI reagent (JetPEI; Polyplus transfection, New York, NY, USA) according to the manufacturer's protocol. Briefly, vectors were mixed with JetPEI reagent in 150 mM NaCl buffer, and then mixture was reacted for 15 minutes. The mixture was added to cells in serum-free medium and reacted for 4 hours. After reaction, the cells were replaced with a culture medium supplemented with 10% FBS.

SOD1 [2] = test: as above; type: cell-based, human; details: for mutant SOD1 aggregation: FIGS. 3B and 3C
Procedure: as §1, §2

normal human fibroblasts = test: Cell viability measurement (MTT), normal fibroblasts; type: cell-based; details: for cytotoxic effect in normal fibroblasts: MTT, FIG. 4E, FIG. 9B
Procedure: HEK293 cells were purchased from American Type Culture Collection (ATCC, Manassas, VA, USA) and maintained at 37° C. and 5% CO2 in DMEM liquid medium including 10% fetal bovine serum and 1% penicillin-streptomycin. SK—N—SH cells were purchased from Korean Cell Line Bank (KCLB, Seoul, South Korea) and maintained in MEM medium including 10% fetal bovine serum, 1% antibiotic, 25 mM HEPES, and 300 mg/L L-Glu. Human fibroblasts (person) were purchased from Coriell Cell Repositories (New Jersey, USA) and maintained in EMEM including 15% FBS, 2 mM Glutamine, and 26 mM HEPES without antibiotics. Thapsigargin (ER calcium scavenger: CAS 67526-95-8) was purchased from Calbiochem (Darmstadt, Germany). CoCl2 (hypoxia-inducer: C8661) was purchased from Sigma Aldrich (St, Louis, Mo, USA).
To check cells viability, the cells were reacted with 0.5 mg/ml MTT solution (475989; Merck, Darmstadt, Germany) at 37° C. for 4 hours. After removing residual solution and washing with PBS, precipitate was dissolved in 200 μl DMSO, and quantified by measuring absorbance at 540 nm.

[3] = Pharmacokinetics (PK) analysis; type: in vivo; details: FIG. 8E
misfolded SOD1 [4] = target: misfolded SOD1 (Homo sapiens, UniProt P00441, G94A); test: Dot blot analysis of misfolded SOD1 in transfected cell lysates; type: cell-based; details: G93A-transfected cell lysates; FIG. 5E
Procedure: (§3) To detect misfolded SOD1 expression, cells transfected with SOD1 vector were treated with the compounds for 24 hours. After reaction, the cells were lysed with a lysis buffer without surfactant, and then cell lysate was fixed on a nitrocellulose membrane using a Bio-Dot SF Microfiltration apparatus (Bio-Rad Laboratories, Hercules, CA). In the case of peptide reaction, SOD1 recombinant proteins were reacted with the compounds for 1 hour, and then samples were loaded onto membrane. Each membrane was washed with TBS and blocked with 3% skim milk to prevent non specific reaction. After blocking, the membrane was reacted with the misfolded SOD1 or Actin antibody (1:8,000 in TBST including 1% skim milk) for 30 minutes, and then with a secondary antibody (goat anti-mouse IgG-horseradish peroxidase, 1:50,000 in 1% skim milk blocking buffer) for 30 minutes. Antibodies reacted to proteins were detected by ECL and X-ray film exposure. Actin was used as a loading control.

misfolded SOD1 [5] = test: as above; type: cell-based, human; details: lysates of cells transfected with WT- or mutant SOD1; FIG. 5D
Procedure: as §3

SOD1-G93A = target: T1, SOD1-G93A (Homo sapiens, UniProt P00441, G94A); test: Dot blot analysis of recombinant SOD1 reacted with compound; type: biochemical; details: FIG. 5F
T1 construct: GST (TEV site) (N); made in house; host or cells: Escherichia coli BL21 (DE3)
Procedure: To prepare recombinant proteins, human SOD1 (WT, A4V, G37R, G85R, G93A) was added to EcoRI and HindIII sites of pGEX-TEV vector, an improved vector made by adding a TEV protease cleavage site to pGEX-4T1 (Invitrogen). The recombinant proteins were expressed as GST-fusion proteins in Escherichia coli (E. coli) strain BL21 (DE3). The proteins were purified by glutathione-affinity chromatography.
as §3

SOD1^G93A-Tg mice = test: In vivo drug treatment of ALS model mice (grip strength, behaviour, histology, survival); design: species or system mouse; details: dosing from 14 weeks, observed at 17-weeks of age; FIGS. 7C and 8C

Sequence of SOD1 (Homo sapiens, UniProt P00441) (P00441 2-154): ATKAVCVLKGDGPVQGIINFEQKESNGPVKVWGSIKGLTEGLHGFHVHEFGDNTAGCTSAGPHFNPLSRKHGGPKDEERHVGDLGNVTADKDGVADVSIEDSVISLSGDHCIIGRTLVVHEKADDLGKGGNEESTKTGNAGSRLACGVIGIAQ
T1 sequence (P00441 whole entry G94A): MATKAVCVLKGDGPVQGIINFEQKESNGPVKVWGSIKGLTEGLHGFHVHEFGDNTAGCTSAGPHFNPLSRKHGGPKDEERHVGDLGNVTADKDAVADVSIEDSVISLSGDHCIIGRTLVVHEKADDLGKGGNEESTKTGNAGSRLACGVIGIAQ
Sequence of misfolded SOD1 (Homo sapiens, UniProt P00441, G94A) (P00441 2-154 G94A): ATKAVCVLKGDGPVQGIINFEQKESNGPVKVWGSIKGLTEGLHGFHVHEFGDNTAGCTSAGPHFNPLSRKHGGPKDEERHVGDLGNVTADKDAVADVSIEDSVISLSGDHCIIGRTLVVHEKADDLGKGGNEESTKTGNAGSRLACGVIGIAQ

COc1cc(/C=C/C(=O)O[C@H]2Cc3cc4ccc(=O)oc4cc3OC2(C)C)ccc1O [PRG-A-01, (S)-8,8-dimethyl-2-oxo-7,8-dihydro-2H,6H-pyrano[3,2-g]chromen-7-yl (E)-3-(4-hydroxy-3-methoxyphenyl) acrylate]
SOD1 aggregation and TDP43 aggregation, native gel analysis (SOD1 [1]; TDP-43 overexpression, FIG. 5B): reduced; also recorded: decreased
multimer bands of SOD1 and TDP-43, cross-linking experiment (SOD1 [1]; glutaraldehyde cross-linking, FIG. 5C): blocks multimer formation of SOD1; also recorded: weakened
mutant SOD1 aggregation (SOD1 [2]): inhibits SOD1 aggregation
mutant SOD1 aggregation (SOD1 [2]; listed as SLC-B036): blocking mutant SOD1 aggregation in a dose-dependent manner
Western Blot (SOD1 [2]; Table 1, effect on SOD1 aggregation, native / non-SDS-PAGE gel): Effect ○
cytotoxic effect in normal fibroblasts (normal human fibroblasts): not cytotoxic
cytotoxic effect in normal fibroblasts (normal human fibroblasts; listed as SLC-B036): did not exhibit cytotoxic effect
Toxicity (MTT) (normal human fibroblasts; Table 1, cell type not given, neurons (FIG. 9A) and normal fibroblasts (FIG. 9B)): No
time to disappearance in body / blood [3]: ≤ 30 min
misfolded SOD1, dot blot, according to doses (misfolded SOD1 [4]): dose-dependent decrease in misfolded SOD1
misfolded SOD1, dot blot (misfolded SOD1 [5]): reduces misfolding formation of SOD1; also recorded: band intensity clearly decreased
recognition of mutant SOD1 by misfolding-specific antibody (SOD1-G93A): inhibits misfolding of mutant SOD1; also recorded: antibody specific for misfolding did not recognize mutant SOD1
motor capacity, behavioral observation (SOD1^G93A-Tg mice): still had motor capacity

Source: patent US12448393B2, “Use of novel compound, for preventing, improving or treating amyotrophic lateral sclerosis” (PRG S&TECH INC., priority 2019, dated 2025)
